Assay results taken from paper PMC11525138 (The Journal of Biological Chemistry, 2024).
Like-named read-outs stand apart in the source and are kept apart here.

Assays:
NanIGH33 [1] = molecular target: T1, NanIGH33 (Clostridium perfringens, UniProt Q59310); assay: biochemical; format: biochemical
NanHGH33 [2] = molecular target: T2, NanHGH33 (Clostridium perfringens, UniProt P10481); assay: biochemical; format: biochemical
NanJGH33 [3] = molecular target: T3, NanJGH33 (Clostridium perfringens, UniProt A0A0H2YT71); assay: biochemical; format: biochemical
T3 sequence (A0A0H2YT71 373-820 limits assumed): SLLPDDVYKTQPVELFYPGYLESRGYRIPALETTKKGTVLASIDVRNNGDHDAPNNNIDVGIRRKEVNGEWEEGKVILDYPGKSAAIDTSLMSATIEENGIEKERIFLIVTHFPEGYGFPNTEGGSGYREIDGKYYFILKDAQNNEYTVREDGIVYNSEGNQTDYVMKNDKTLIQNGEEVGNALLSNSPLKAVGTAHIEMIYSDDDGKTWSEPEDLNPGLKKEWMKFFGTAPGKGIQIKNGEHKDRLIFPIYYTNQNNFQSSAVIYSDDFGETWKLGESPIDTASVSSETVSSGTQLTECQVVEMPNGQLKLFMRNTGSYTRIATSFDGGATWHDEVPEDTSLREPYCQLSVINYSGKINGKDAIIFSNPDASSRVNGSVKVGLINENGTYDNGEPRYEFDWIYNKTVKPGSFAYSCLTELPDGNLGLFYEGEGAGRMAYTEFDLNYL

NanJGH33 [4] = molecular target: T3, NanJGH33; format: biochemical; settings: pH 4.5
NanIGH33 [5] = molecular target: T1, NanIGH33; format: biochemical; settings: pH 4.5
NanHGH33 [6] = molecular target: T2, NanHGH33; format: biochemical; settings: pH 4.5
NanIGH33 [7] = molecular target: T1, NanIGH33; format: biochemical
NanHGH33 [8] = molecular target: T2, NanHGH33; format: biochemical
C. perfringens CP1 = format: cell-based, Clostridium perfringens; settings: for Doubling Time: without DANA 0.762; for k (rate constant) of exponential growth: without DANA 0.909 ± 0.098
NanJGH33 [9] = molecular target: T3, NanJGH33; format: biochemical

T1 sequence (Q59310 243-694 limits assumed): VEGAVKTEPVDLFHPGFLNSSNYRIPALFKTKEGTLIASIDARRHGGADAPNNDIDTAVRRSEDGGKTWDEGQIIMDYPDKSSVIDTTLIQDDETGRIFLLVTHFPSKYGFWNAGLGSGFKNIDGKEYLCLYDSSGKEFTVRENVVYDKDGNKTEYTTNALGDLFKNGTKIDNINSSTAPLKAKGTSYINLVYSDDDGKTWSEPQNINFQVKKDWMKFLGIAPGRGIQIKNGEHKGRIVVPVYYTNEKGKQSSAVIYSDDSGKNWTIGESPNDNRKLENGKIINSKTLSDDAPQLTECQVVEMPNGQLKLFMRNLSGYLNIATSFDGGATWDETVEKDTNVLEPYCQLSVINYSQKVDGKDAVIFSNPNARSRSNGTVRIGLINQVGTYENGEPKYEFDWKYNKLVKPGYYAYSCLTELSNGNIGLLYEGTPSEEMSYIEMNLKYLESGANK
T2 sequence (P10481 whole entry, looked up): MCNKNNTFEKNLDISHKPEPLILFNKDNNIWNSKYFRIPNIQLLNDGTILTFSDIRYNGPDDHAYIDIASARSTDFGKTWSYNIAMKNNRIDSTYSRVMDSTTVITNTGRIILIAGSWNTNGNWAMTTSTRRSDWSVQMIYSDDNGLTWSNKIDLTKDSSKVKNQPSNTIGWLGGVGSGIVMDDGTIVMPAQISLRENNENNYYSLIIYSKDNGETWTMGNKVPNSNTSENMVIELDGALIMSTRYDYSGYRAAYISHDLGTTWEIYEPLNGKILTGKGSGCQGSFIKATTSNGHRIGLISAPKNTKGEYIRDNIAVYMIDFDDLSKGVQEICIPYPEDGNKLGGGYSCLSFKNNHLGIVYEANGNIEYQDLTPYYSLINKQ

## CCOC(=O)C1=C[C@@H](OC(CC)CC)[C@H](NC(C)=O)[C@@H](N)C1 [Oseltamivir, (3R,4R,5S)-4-acetamido-5-amino-3-(1-ethylpropoxy)-1-cyclohexene-1-carboxylic acid ethyl ester]
NanIGH33 [1]
  Ki: > 100 µM
  inhibition of NanIGH33 (in words): did not display any detectable inhibition
NanHGH33 [2]
  Ki: > 100 µM
  inhibition of NanHGH33 (in words): did not display any detectable inhibition
NanJGH33 [3]
  Ki: > 100 µM
  inhibition of NanJGH33 (in words): did not display any detectable inhibition

## CC(=O)N[C@H]1[C@H]([C@H](O)[C@H](O)CO)O[C@@](OC[C@H]2O[C@@H](O[C@H]3[C@H](O)[C@@H](O)[C@H](O)O[C@@H]3CO)[C@H](O)[C@@H](O)[C@H]2O)(C(=O)O)C[C@@H]1O [6′-SL, 6′-sialyllactose]
NanJGH33 [4]
  hydrolysis of substrate in competition assay (in words): processed both substrates very rapidly
NanIGH33 [5]
  hydrolysis of substrate in competition assay (in words): roughly equal rates
NanHGH33 [6]
  hydrolysis of substrate in competition assay (in words): did not show any significant capacity to hydrolyze

## CC(=O)N[C@H]1[C@H]([C@H](O)[C@H](O)CO)OC(C(=O)O)=C[C@@H]1N=C(N)N [Zanamivir, 4-guanidino-2,4-dideoxy-2,3-dehydro-N-acetylneuraminic acid]
NanIGH33 [1]
  Ki: > 100 µM
  inhibition of NanIGH33 (in words): did not display any detectable inhibition
NanHGH33 [2]
  Ki: > 100 µM
  inhibition of NanHGH33 (in words): did not display any detectable inhibition
NanJGH33 [3]
  Ki: > 100 µM
  inhibition of NanJGH33 (in words): did not display any detectable inhibition

## CC(=O)N[C@H]1NC[C@H](C(=O)O)[C@H](O)[C@@H]1O [Siastatin B, (3S, 4S, 5R, 6R)-6-(acetylamino)-4,5-dihydroxy-3-piperidinecarboxylic acid]
NanIGH33 [1]
  Ki: 10.7 ± 2 µM
NanHGH33 [2]
  Ki: 125 ± 16.2 µM
NanJGH33 [3]
  Ki: 13.3 ± 1.6 µM

## CC(=O)N[C@H]1[C@H]([C@H](O)[C@H](O)CO)O[C@@](Oc2c[nH]c3ccc(Br)c(Cl)c23)(C(=O)O)C[C@@H]1O [X-Neu5Ac, 5-bromo-4-chloro-3-indolyl α-D-N-acetylneuraminic acid]
NanIGH33 [1]; pH 6.5
  Km: 123 ± 25.4 µM
  Vmax: 0.09 ± 0.01 µM/s
  kcat: 9.2 ± 0.6 s⁻¹
NanHGH33 [2]; pH 7
  Km: 280 ± 62.7 µM
  kcat: 13.3 ± 1.2 s⁻¹
NanJGH33 [3]
  kcat/Km of NanJGH33 relative to NanHGH33: ~3.6 fold
  kcat/Km of NanJGH33 relative to NanIGH33: approximately 2 fold
NanJGH33 [3]; pH 6.8
  Km: 87 ± 10.7 µM
  kcat: 15.3 ± 0.6 s⁻¹

## CC(=O)N[C@H]1[C@H]([C@H](O)[C@H](O)CO)OC(C(=O)O)=C[C@@H]1O [DANA, N-acetyl-2,3-dehydro-2-deoxyneuraminic acid]
NanIGH33 [7]
  lactose released from 3′- and 6′-SL in the presence of inhibitor: reduced the amount of lactose released
NanHGH33 [8]
  lactose released from 3′- and 6′-SL in the presence of inhibitor: reduced the amount of lactose released
NanIGH33 [1]; pH 6.5, read-out: Ki
  Ki: 3.1 ± 0.5 µM
C. perfringens CP1; 0.5% 3′SL as substrate, 1 mM DANA required for a clear effect
  effect on growth of C. perfringens in the presence of 3′SL: reduce the growth
C. perfringens CP1; 3'SL + 0.01 mM DANA
  Doubling Time: 0.571 h
  k (rate constant) of exponential growth: 1.214 ± 0.085
C. perfringens CP1; 3'SL + 0.1 mM DANA
  Doubling Time: 0.576 h
  k (rate constant) of exponential growth: 1.202 ± 0.066
C. perfringens CP1; 3'SL + 1 mM DANA
  Doubling Time: 1.725 h
  k (rate constant) of exponential growth: 0.402 ± 0.019
C. perfringens CP1; 24 h culture supernatants, HPAEC-PAD quantification
  effect on C. perfringens consumption of 3′-SL: protect against C. perfringens consumption of 3′-SL
C. perfringens CP1; glucose as sole carbohydrate source, data not shown
  reduction of growth of C. perfringens with glucose as the sole carbohydrate source: not
NanHGH33 [2]; pH 7, read-out: Ki
  Ki: 33.9 ± 4.4 µM
NanJGH33 [9]
  lactose released from 3′- and 6′-SL in the presence of inhibitor: reduced the amount of lactose released
NanJGH33 [3]; pH 6.8, read-out: Ki
  Ki: 3.2 ± 0.3 µM

## CC(=O)N[C@H]1[C@H]([C@H](O)[C@H](O)CO)O[C@@](O[C@H]2[C@@H](O)[C@@H](CO)O[C@@H](O[C@H]3[C@H](O)[C@@H](O)C(O)O[C@@H]3CO)[C@@H]2O)(C(=O)O)C[C@@H]1O (stereo partly drawn) [3′-SL, 3′-sialyllactose]
NanJGH33 [4]
  hydrolysis of substrate in competition assay (in words): processed both substrates very rapidly
NanIGH33 [5]
  hydrolysis of substrate in competition assay (in words): roughly equal rates
NanHGH33 [6]
  hydrolysis of substrate in competition assay (in words): hydrolyzed
